How the values were obtained:
[1] = tested on: Hepatotoxicity;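 on HepSE Combined Scores: combined hepatic side effect score as listed in the training data of the Drug Induced Liver Injury Prediction System (DILIps)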;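 on HepSE cholecystitis: Cholecystitis-related hepatic side effect score drawn from the DILIps (drug-induced liver injury prediction) training data set; call rule not given here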;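 on HepSE cholelithiasis: hepatic side effect score for cholelithiasis, drawn from the DILIps training data for predicting drug-induced liver injury; call rule not given here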;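 on HepSE cirrhosis: cirrhosis hepatic side effect score taken from the DILIps (drug-induced liver injury prediction) training set; call rule not given here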;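 on HepSE hepatic necrosis: score of hepatic side effects for hepatic necrosis, drawn from the training data of DILIps, a prediction system for drug-induced liver injury; call rule not given here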;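 on HepSE jaundice: Jaundice-related hepatic side-effect score drawn from the training data of the DILIps (drug-induced liver injury prediction system); call rule not given here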
[2] = tested on: Hepatotoxicity; remark: listed apart in the source;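 on HepSE Combined Scores: combined hepatic side effect score as listed in the training data of the Drug Induced Liver Injury Prediction System (DILIps)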;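 on HepSE cholecystitis: Cholecystitis-related hepatic side effect score drawn from the DILIps (drug-induced liver injury prediction) training data set; call rule not given here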;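 on HepSE cholelithiasis: hepatic side effect score for cholelithiasis, drawn from the DILIps training data for predicting drug-induced liver injury; call rule not given here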;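 on HepSE cirrhosis: cirrhosis hepatic side effect score taken from the DILIps (drug-induced liver injury prediction) training set; call rule not given here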;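 on HepSE hepatic necrosis: score of hepatic side effects for hepatic necrosis, drawn from the training data of DILIps, a prediction system for drug-induced liver injury; call rule not given here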;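 on HepSE jaundice: Jaundice-related hepatic side-effect score drawn from the training data of the DILIps (drug-induced liver injury prediction system); call rule not given here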
[3] = tested on: Hepatotoxicity; remark: listed apart in the source;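 on HepSE Combined Scores: combined hepatic side effect score as listed in the training data of the Drug Induced Liver Injury Prediction System (DILIps)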;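 on HepSE cholecystitis: Cholecystitis-related hepatic side effect score drawn from the DILIps (drug-induced liver injury prediction) training data set; call rule not given here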;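 on HepSE cholelithiasis: hepatic side effect score for cholelithiasis, drawn from the DILIps training data for predicting drug-induced liver injury; call rule not given here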;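 on HepSE cirrhosis: cirrhosis hepatic side effect score taken from the DILIps (drug-induced liver injury prediction) training set; call rule not given here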;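 on HepSE hepatic necrosis: score of hepatic side effects for hepatic necrosis, drawn from the training data of DILIps, a prediction system for drug-induced liver injury; call rule not given here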;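 on HepSE jaundice: Jaundice-related hepatic side-effect score drawn from the training data of the DILIps (drug-induced liver injury prediction system); call rule not given here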
[4] = tested on: Hepatotoxicity; remark: listed apart in the source;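 on HepSE Combined Scores: combined hepatic side effect score as listed in the training data of the Drug Induced Liver Injury Prediction System (DILIps)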;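 on HepSE cholecystitis: Cholecystitis-related hepatic side effect score drawn from the DILIps (drug-induced liver injury prediction) training data set; call rule not given here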;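 on HepSE cholelithiasis: hepatic side effect score for cholelithiasis, drawn from the DILIps training data for predicting drug-induced liver injury; call rule not given here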;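 on HepSE cirrhosis: cirrhosis hepatic side effect score taken from the DILIps (drug-induced liver injury prediction) training set; call rule not given here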;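 on HepSE hepatic necrosis: score of hepatic side effects for hepatic necrosis, drawn from the training data of DILIps, a prediction system for drug-induced liver injury; call rule not given here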;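 on HepSE jaundice: Jaundice-related hepatic side-effect score drawn from the training data of the DILIps (drug-induced liver injury prediction system); call rule not given here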
[5] = tested on: Hepatotoxicity; remark: listed apart in the source
[6] = tested on: Hepatotoxicity; remark: listed apart in the source
[7] = tested on: Hepatotoxicity; remark: listed apart in the source
[8] = tested on: Hepatotoxicity; remark: listed apart in the source
[9] = tested on: Hepatotoxicity; remark: listed apart in the source
[10] = tested on: Hepatotoxicity; remark: listed apart in the source
[11] = tested on: Hepatotoxicity; remark: listed apart in the source
[12] = tested on: Hepatotoxicity; remark: listed apart in the source
[13] = tested on: Hepatotoxicity; remark: listed apart in the source
[14] = tested on: Hepatotoxicity; remark: listed apart in the source

SMILES | HepSE_hepatic necrosis [1] | HepSE_Combined Scores [2] | HepSE_cirrhosis [3] | HepSE_jaundice [4] | HepSE_cholelithiasis [5] | HepSE_cholecystitis [6] | HepSE_liver disease [7] | HepSE_hepatic failure [8] | HepSE_bilirubinemia [9] | HepSE_hepatomegaly [10] | HepSE_liver function tests abnormal [11] | HepSE_liver fatty [12] | HepSE_hepatitis [13] | HepSE_elevated liver function tests [14] | further results
CC(C)C[C@H](NC(=O)[C@H](Cc1ccccc1)NC(=O)c1cnccn1)B(O)O [BORTEZOMIB] |  |  |  |  |  |  |  |  |  |  |  |  |  |  | HepSE_hepatic necrosis ([1]; Liver): 0; HepSE_Combined Scores ([2]; Liver): 3; HepSE_cirrhosis ([3]; Liver): 0; HepSE_jaundice ([4]; Liver): 0; HepSE_cholelithiasis ([5]; Liver): 0; HepSE_cholecystitis ([6]; Liver): 0; HepSE_liver disease ([7]; Liver): 0; HepSE_hepatic failure ([8]; Liver): 1; HepSE_bilirubinemia ([9]; Liver): 1; HepSE_hepatomegaly ([10]; Liver): 0; HepSE_liver function tests abnormal ([11]; Liver): 0; HepSE_liver fatty ([12]; Liver): 0; HepSE_hepatitis ([13]; Liver): 1; HepSE_elevated liver function tests ([14]; Liver): 0
COc1ccccc1Oc1c(NS(=O)(=O)c2ccc(C(C)(C)C)cc2)nc(-c2ncccn2)nc1OCCO [BOSENTAN] | 0 | 4 | 1 | 1 | 0 | 0 | 0 | 1 | 0 | 0 | 0 | 0 | 1 | 0 | 
CC[N+](C)(C)Cc1ccccc1Br [BRETYLIUM] | 0 | 0 | 0 | 0 | 0 | 0 | 0 | 0 | 0 | 0 | 0 | 0 | 0 | 0 | 
Brc1c(NC2=NCCN2)ccc2nccnc12 [BRIMONIDINE] |  |  |  |  |  |  |  |  |  |  |  |  |  |  | HepSE_hepatic necrosis ([1]; Liver): 0; HepSE_Combined Scores ([2]; Liver): 0; HepSE_cirrhosis ([3]; Liver): 0; HepSE_jaundice ([4]; Liver): 0; HepSE_cholelithiasis ([5]; Liver): 0; HepSE_cholecystitis ([6]; Liver): 0; HepSE_liver disease ([7]; Liver): 0; HepSE_hepatic failure ([8]; Liver): 0; HepSE_bilirubinemia ([9]; Liver): 0; HepSE_hepatomegaly ([10]; Liver): 0; HepSE_liver function tests abnormal ([11]; Liver): 0; HepSE_liver fatty ([12]; Liver): 0; HepSE_hepatitis ([13]; Liver): 0; HepSE_elevated liver function tests ([14]; Liver): 0
CCN[C@H]1CN(CCCOC)S(=O)(=O)c2sc(S(N)(=O)=O)cc21 [BRINZOLAMIDE] | 0 | 0 | 0 | 0 | 0 | 0 | 0 | 0 | 0 | 0 | 0 | 0 | 0 | 0 | 
O=C1CN=C(c2ccccn2)c2cc(Br)ccc2N1 [BROMAZEPAM] | 0 | 0 | 0 | 0 | 0 | 0 | 0 | 0 | 0 | 0 | 0 | 0 | 0 | 0 | 
CC(C)C[C@H]1C(=O)N2CCC[C@H]2[C@]2(O)O[C@](NC(=O)[C@@H]3C=C4c5cccc6[nH]c(Br)c(c56)C[C@H]4N(C)C3)(C(C)C)C(=O)N12 [BROMOCRIPTINE] | 0 | 0 | 0 | 0 | 0 | 0 | 0 | 0 | 0 | 0 | 0 | 0 | 0 | 0 | 
CCCC1O[C@@H]2C[C@H]3[C@@H]4CCC5=CC(=O)C=C[C@]5(C)[C@H]4[C@@H](O)C[C@]3(C)[C@]2(C(=O)CO)O1 (stereo partly drawn) [BUDESONIDE] | 0 | 0 | 0 | 0 | 0 | 0 | 0 | 0 | 0 | 0 | 0 | 0 | 0 | 0 | 
CCCCNc1cc(C(=O)O)cc(S(N)(=O)=O)c1Oc1ccccc1 [BUMETANIDE] | 0 | 1 | 0 | 0 | 0 | 0 | 1 | 0 | 0 | 0 | 0 | 0 | 0 | 0 | 
CCCCN1CCCCC1C(=O)Nc1c(C)cccc1C (stereo not drawn) [BUPIVACAINE] | 0 | 1 | 0 | 0 | 0 | 0 | 1 | 0 | 0 | 0 | 0 | 0 | 0 | 0 | 
CO[C@]12CC[C@@]3(C[C@@H]1[C@](C)(O)C(C)(C)C)[C@H]1Cc4ccc(O)c5c4[C@@]3(CCN1CC1CC1)[C@H]2O5 [BUPRENORPHINE] | 0 | 0 | 0 | 0 | 0 | 0 | 0 | 0 | 0 | 0 | 0 | 0 | 0 | 0 | 
CC(NC(C)(C)C)C(=O)c1cccc(Cl)c1 (stereo not drawn) [BUPROPION] | 0 | 2 | 0 | 1 | 0 | 0 | 0 | 0 | 0 | 0 | 0 | 0 | 1 | 0 | 
CCNC(=O)[C@@H]1CCCN1C(=O)[C@H](CCCNC(=N)N)NC(=O)[C@H](CC(C)C)NC(=O)[C@@H](COC(C)(C)C)NC(=O)[C@H](Cc1ccc(O)cc1)NC(=O)[C@H](CO)NC(=O)[C@H](Cc1c[nH]c2ccccc12)NC(=O)[C@H](Cc1cnc[nH]1)NC(=O)[C@@H]1CCC(=O)N1 [BUSERELIN] | 0 | 0 | 0 | 0 | 0 | 0 | 0 | 0 | 0 | 0 | 0 | 0 | 0 | 0 | 
O=C1CC2(CCCC2)CC(=O)N1CCCCN1CCN(c2ncccn2)CC1 [BUSPIRONE] | 0 | 0 | 0 | 0 | 0 | 0 | 0 | 0 | 0 | 0 | 0 | 0 | 0 | 0 | 
CS(=O)(=O)OCCCCOS(C)(=O)=O [BUSULFAN] | 0 | 4 | 0 | 1 | 0 | 0 | 0 | 0 | 1 | 1 | 0 | 0 | 1 | 0 | 
CN(Cc1ccc(C(C)(C)C)cc1)Cc1cccc2ccccc12 [BUTENAFINE] | 0 | 0 | 0 | 0 | 0 | 0 | 0 | 0 | 0 | 0 | 0 | 0 | 0 | 0 | 
Clc1ccc(CCC(Cn2ccnc2)Sc2c(Cl)cccc2Cl)cc1 (stereo not drawn) [BUTOCONAZOLE] | 0 | 0 | 0 | 0 | 0 | 0 | 0 | 0 | 0 | 0 | 0 | 0 | 0 | 0 | 

Reference: ChEMBL document CHEMBL1909294, “Translating clinical findings into knowledge in drug safety evaluation--drug induced liver injury prediction system (DILIps)” (PLoS Comput Biol, 2011)
